Source: patent US11261429B2, “Enriched and expanded human cord blood stem cells for treatment of hematological disorders” (ICAHN SCHOOL OF MEDICINE AT MOUNT SINAI, priority 2013, dated 2022)

What was measured:
Format in all cases: cell-based, human
HDAC4 = assay: HDAC protein levels in CB-MNCs, Western blot densitometry; conditions: 24 hr, SCR 8 μM, C433 80 μM, VPA 1.25 mM
Description: (§1) Cellular proteins were separated by SDS-PAGE using Novex (Invitrogen) and transferred by iBlot (Invitrogen). The membranes were probed with mAbs against individual histone deacetylases (HDAC1, HDAC2, HDAC3, HDAC4, HDAC5, HDAC6, and β-actin; Cell Signaling Technology) and developed using a chemiluminescence system with HRP-conjugated secondary antibodies (Amersham Biosciences) according to the manufacturer's instructions.

HDAC3 = assay: as above; conditions: 24 hr, SCR 8 μM, C433 80 μM, VPA 1.25 mM
Description: as §1

class I and II HDAC = assay: HDAC protein levels in CB-MNCs, Western blot, all HDACs examined; conditions: after 2 hours of treatment
Description: as §1

HDAC6 = assay: HDAC protein levels in CB-MNCs, Western blot densitometry; conditions: 24 hr, SCR 8 μM, C433 80 μM, VPA 1.25 mM
HDAC2 = assay: as above; conditions: 24 hr, SCR 8 μM, C433 80 μM, VPA 1.25 mM
HDAC5 = assay: as above; conditions: 24 hr, SCR 8 μM, C433 80 μM, VPA 1.25 mM
HDAC1 = assay: as above; conditions: 24 hr, SCR 8 μM, C433 80 μM, VPA 1.25 mM
CB CD34+ cells = assay: Ex vivo expansion of CB CD34+ cells with HDACIs, phenotypic analysis by flow cytometry; conditions: 7 days of culture with cytokines plus HDACI
Description: CB collections were purchased from the Placental Blood Program at the New York Blood Center. CB-MNCs were isolated by Ficoll-Hypaque density centrifugation, and CD34+ cells were purified by immunotnagnetic selection as previously described (Chaurasia et al., “Chromatin-Modifying Agents Promote the Ex vivo Production of Functional Human Erythroid Progenitor Cells,” Blood 117:4632-4641 (2011), which is hereby incorporated by reference in its entirety). Highly purified (90%-98%) PCs (4.0-5.0×10^4) were cultured in SF Stemline II (Sigma-Aldrich) culture medium or IMDM (Lonza) containing 30% FBS (HyClone Laboratories) supplemented with 150 ng/ml SCF, 100 ng/ml fms-like tyrosine kinase receptor 3 (FLT3 ligand), 100 ng/ml thrombopoietin (TPO), and 50 ng/ml interleukin 3 (IL-3) (R&D Systems) and incubated in a humidified incubator maintained at 37° C. with 5% CO2. […] The cell populations studied and the various conditions under which they were cultured are referred to by specific terms listed in Table 1. Viable PC and cultured cells were enumerated using the trypan blue exclusion method. The fold expansion of CD34+ cells or subpopulations was calculated based on the number of CD34+ cells determined to be present in an individual CB collection and the number of CD34+ cells that would have been generated if all of the CD34+ cells within that primary CB collection were cultured using the various culture conditions described. PC or cultured cells expanded in the presence or absence of HDACIs were stained with an anti-human CD34 mAb or an isotype-matched control mAb and analyzed using a FACSCanto II (BD). CD34+ cells were re-isolated using a CD34+ cell isolation kit, as previously described, for further phenotypic and functional analyses. All mAbs were purchased from BD Biosciences and Cell Signaling Technology. Phenotypic analyses ([…], […], and […]7) of the ex vivo-expanded cells after 7 days in control cultures or cytokines plus an HDACI were performed as previously described (Chaurasia et al., “Chromatin-Modifying Agents Promote the Ex vivo Production of Functional Human Erythroid Progenitor Cells,” Blood 117:4632-4641 (2011), which is hereby incorporated by reference in its entirety).

Row | SMILES | HDAC4 expression relative to b-ACTIN (%) (HDAC4) | HDAC3 expression relative to b-ACTIN (%) (HDAC3) | inhibition of HDAC expression (class I and II HDAC) | HDAC6 expression relative to b-ACTIN (%) (HDAC6) | HDAC2 expression relative to b-ACTIN (%) (HDAC2) | HDAC5 expression relative to b-ACTIN (%) (HDAC5) | HDAC1 expression relative to b-ACTIN (%) (HDAC1) | percentage of CD34+CD90+ cells (CB CD34+ cells)
1 | Nc1ccccc1NC(=O)CCCCCCC(=O)Nc1ccccc1 [C433, CAY10433] | 23.5 ± 16.5 | 28.0 ± 20.0 | did not inhibit HDAC expression | 35.8 ± 7.2 | 40.0 ± 8.0 | 12.6 ± 1.9 | 24.3 ± 0.4 | 70.1%±18.4%
2 | O=C(CCCCCN1C(=O)c2cccc3cccc(c23)C1=O)NO [SCR, Scriptaid] | – | – | did not inhibit HDAC expression | – | – | – | – | 73.4%±13.9%
